For orientation: GI50 means the concentration giving 50% growth inhibition. A high value points to less potent growth inhibition. For orientation: IC50 means the midpoint of a concentration-inhibition curve.

Test [1] has as its system MCF7. Kind of test: Cytotoxicity against human MCF7 cells. The class given is functional.
The subject of test [2] is COLO 205. Kind of test: Cytotoxicity against human COLO205 cells. The format is functional.
The nature of test [3]: Cytotoxicity against human NCI-ADR-RES cells after 48 hrs by Alamar blue assay. The class given is functional, cell-based. A general note: The colour change of resazurin is a common sign of viable cells or microbes.
The subject of test [4] is MCF7. Put plainly: Cytotoxicity against human MCF7 cells after 48 hrs by Alamar blue assay. The class given is functional, cell-based. As to conditions: MCF7, 48 h.
For test [5], the system named is COLO 205. Kind of test: Cytotoxicity against human COLO205 cells after 48 hrs by Alamar blue assay. The class given is functional, cell-based. The conditions noted are these: COLO 205, 48 h.

Consider `COc1ccc2c3c(c4cc(OC)c(OC)cc4c2c1)CN1CCCC[C@@H]1C3`, for which the GI50 was determined as 13 nM in the test with MCF7 [1] and 0.8 nM in the test on COLO 205 [2]. Besides, the IC50 in test [3] was 36.7 nM; in the test on MCF7 [4], 43.4 nM; in the test with COLO 205 [5], 4.18 nM.

With `COc1ccc2c3c(c4cc(OC)c(OC)cc4c2c1)CN1CCCC[C@H]1C3`, the IC50 came to 434 nM in test [3], 92.7 nM with MCF7 [4] and 103 nM in the test with COLO 205 [5].

`CC(=O)O[C@H]1C(=O)[C@@]2(C)[C@H]([C@H](OC(=O)c3ccccc3)[C@]3(O)C[C@H](OC(=O)[C@H](O)[C@@H](NC(=O)c4ccccc4)c4ccccc4)C(C)=C1C3(C)C)[C@]1(OC(C)=O)CO[C@@H]1C[C@@H]2O` [PACLITAXEL]: the IC50 was greater than 6400 nM in test [3], 1.62 nM in the test on MCF7 [4] and 3.31 nM in the test with COLO 205 [5].

Values taken from ChEMBL document CHEMBL2151007, “Total Syntheses and Cytotoxicity of (R)- and (S)-Boehmeriasin A” (ACS Med Chem Lett, 2011).
